EPA's ToxRefDB 2
Blank lines part the entries; values can stand above or below the molecule they belong to.

Columns and labels:
dog [1] = details: Subchronic oral toxicity in nonrodent, beagle, Gavage/Intubation, dose end: 92 day, group: systemic
dog [2] = details: Sub-acute repeat dose toxicity, beagle, Oral, Gavage/Intubation, dose end: 14 day, group: systemic
rat [3] = details: Fertility (Segment I), sprague dawley, Oral, Gavage/Intubation, dose end: 1 generation, group: parental
rabbit = details: Sub-acute repeat dose toxicity, new zealand white, Oral, Gavage/Intubation, dose end: 5 day, group: systemic
rat [4] = details: Fertility (Segment I); sprague dawley; Oral; Gavage/Intubation; dose end: 1 generation; group: parental; systemic / in life observation / body weight / body weight gain + systemic / in life observation / clinical signs / anogenital staining
rat [5] = details: Subchronic oral toxicity in rodents, sprague dawley, Gavage/Intubation, dose end: 90 day, group: systemic
rat [6] = details: Sub-acute repeat dose toxicity, sprague dawley, Oral, Gavage/Intubation, dose end: 14 day, group: systemic
rat [7] = details: Subchronic oral toxicity in rodents, fischer, Gavage/Intubation, dose end: 13 week, group: systemic
mouse [8] = details: Carcinogenicity, b6c3f1, Oral, Gavage/Intubation, dose end: 2 year, group: systemic
rat [9] = details: Carcinogenicity, fischer, Oral, Gavage/Intubation, dose end: 2 year, group: systemic
mouse [10] = details: Subchronic oral toxicity in rodents, b6c3f1, Gavage/Intubation, dose end: 13 week, group: systemic
mouse [11] = details: Subchronic oral toxicity in rodents, b6c3f1, Gavage/Intubation, dose end: 13 week, group: systemic; remark: listed apart in the source
mouse [12] = details: Carcinogenicity; cd1; Oral; Gavage/Intubation; dose end: 78 week; group: systemic; systemic / in life observation / body weight / body weight + systemic / in life observation / body weight / body weight gain
rat [13] = details: Subchronic oral toxicity in rodents, fischer, Gavage/Intubation, dose end: 13 week, group: systemic; remark: listed apart in the source
rat [14] = details: Chronic toxicity, sprague dawley, Oral, Gavage/Intubation, dose end: 24 month, group: systemic
dog [15] = details: Chronic toxicity, beagle, Oral, Capsule, dose end: 52 week, group: systemic
[16] = systemic / clinical chemistry / albumin / albumin + systemic / in life observation / clinical signs / erythema + systemic / clinical …
[17] = systemic / clinical chemistry / [other] / [other] + systemic / clinical chemistry / hepatic mixed function oxidase (mfo) assay / hepatic …
[18] = systemic / in life observation / clinical signs / abnormal feces
[19] = systemic / in life observation / clinical signs / anogenital staining + systemic / in life observation / clinical signs / salivation
[20] = systemic / in life observation / body weight / body weight + systemic / in life observation / clinical signs / abnormal feces + systemic / …
[21] = systemic / in life observation / mortality / mortality + systemic / in life observation / body weight / body weight + systemic / in life …
[22] = systemic / in life observation / clinical signs / salivation + systemic / pathology microscopic / bone / proliferation
[23] = systemic / in life observation / clinical signs / salivation + systemic / pathology microscopic / bone / proliferation + systemic / …
[24] = systemic / clinical chemistry / [other] / [other] + systemic / clinical chemistry / cytochrome p450, nos / cytochrome p450, nos + systemic…
[25] = systemic / in life observation / mortality / mortality
[26] = systemic / in life observation / mortality / mortality + systemic / pathology microscopic / brain / degeneration + systemic / pathology …
[27] = systemic / pathology microscopic / stomach / hyperplasia
[28] = systemic / pathology microscopic / stomach / papilloma + systemic / pathology microscopic / stomach / hyperplasia
[29] = systemic / pathology microscopic / spleen / leukemia mononuclear
[30] = systemic / pathology microscopic / spleen / leukemia mononuclear + systemic / pathology microscopic / stomach / papilloma + systemic / …
[31] = systemic / in life observation / mortality / mortality + systemic / in life observation / body weight / body weight + systemic / pathology …
[32] = systemic / in life observation / body weight / body weight + systemic / in life observation / body weight / body weight gain + systemic / in…
[33] = systemic / organ weight / liver / absolute + systemic / organ weight / liver / relative to body weight
[34] = systemic / clinical chemistry / alkaline phosphatase (alp/alk) / alkaline phosphatase (alp/alk) + systemic / clinical chemistry / urea …
[35] = systemic / pathology microscopic / liver / hyperplasia
[36] = systemic / pathology microscopic / liver / hyperplasia + systemic / pathology microscopic / bone marrow / [other]
[37] = systemic / clinical chemistry / albumin / albumin + systemic / clinical chemistry / albumin-globulin ratio / albumin-globulin ratio + …
[38] = systemic / hematology / leukocyte (wbc) count differential / leukocyte (wbc) + systemic / pathology microscopic / bone marrow / …

- LEL (rat [3]; systemic / in life observation / clinical signs / anogenital staining): 50 mg/kg/day
- NEL (rat [3]; [19]): 10 mg/kg/day
Structure (SMILES): O=C(NO)C1(NS(=O)(=O)c2ccc(Oc3ccc(F)cc3)cc2)CCOCC1
- NEL (dog [1]; systemic / clinical chemistry / albumin / albumin + systemic / in life observation / clinical signs / erythema): 10 mg/kg/day
- LOAEL (dog [1]; [16]): > 400 mg/kg/day
- NOAEL (dog [1]; [16]): ≥ 400 mg/kg/day
- LEL (dog [1]; systemic / in life observation / clinical signs / erythema + systemic / clinical chemistry / albumin / albumin + systemic / clinical …): 100 mg/kg/day
- LOAEL (dog [2]; [17]): > 400 mg/kg/day
- NOAEL (dog [2]; [17]): ≥ 400 mg/kg/day
- LEL (dog [2]; [18]): 10 mg/kg/day
- NEL (dog [2]; [18]): < 10 mg/kg/day
- LOAEL (rat [3]; [19]): > 1000 mg/kg/day
- NOAEL (rat [3]; [19]): ≥ 1000 mg/kg/day
- LEL (rabbit; [20]): 60 mg/kg/day
- NEL (rabbit; [20]): < 60 mg/kg/day
- LOAEL (rabbit; [21]): > 600 mg/kg/day
- NOAEL (rabbit; [21]): ≥ 600 mg/kg/day
- LEL (rat [4]): 1000 mg/kg/day
- LOAEL (rat [4]): > 1000 mg/kg/day
- NEL (rat [4]): 50 mg/kg/day
- NOAEL (rat [4]): ≥ 1000 mg/kg/day
- LEL (rat [5]; [22]): 10 mg/kg/day
- NEL (rat [5]; [22]): < 10 mg/kg/day
- LOAEL (rat [5]; [23]): > 1000 mg/kg/day
- NOAEL (rat [5]; [23]): ≥ 1000 mg/kg/day
- LOAEL (rat [6]; [24]): > 1000 mg/kg/day
- NOAEL (rat [6]; [24]): ≥ 1000 mg/kg/day
- LEL (rat [6]; systemic / in life observation / clinical signs / salivation): 50 mg/kg/day
- NEL (rat [6]; systemic / in life observation / clinical signs / salivation + systemic / in life observation / clinical signs / urine staining - perineum…): 10 mg/kg/day

Structure (SMILES): O=Cc1ccccc1 [Benzaldehyde]
- LEL (rat [7]; [25]): 400 mg/kg/day
- LOAEL (rat [7]; [26]): > 800 mg/kg/day
- NEL (rat [7]; [26]): 200 mg/kg/day
- NOAEL (rat [7]; [26]): ≥ 800 mg/kg/day
- LOAEL (mouse [8]; [27]): > 400 mg/kg/day
- NOAEL (mouse [8]; [27]): ≥ 400 mg/kg/day
- LEL (mouse [8]; [28]): 300 mg/kg/day
- NEL (mouse [8]; [28]): < 300 mg/kg/day
- LEL (rat [9]; [29]): 200 mg/kg/day
- NEL (rat [9]; [29]): < 200 mg/kg/day
- LOAEL (rat [9]; [30]): > 400 mg/kg/day
- NOAEL (rat [9]; [30]): ≥ 400 mg/kg/day
- NEL (mouse [10]; systemic / in life observation / body weight / body weight + systemic / in life observation / mortality / mortality + systemic / pathology …): 300 mg/kg/day
- LEL (mouse [10]; systemic / in life observation / body weight / body weight + systemic / pathology microscopic / kidney / degeneration): 600 mg/kg/day
- LOAEL (mouse [10]; [31]): > 1200 mg/kg/day
- NOAEL (mouse [10]; [31]): ≥ 1200 mg/kg/day

Structure (SMILES): N#CSCSC#N [Methylene bis(thiocyanate)]
- LOAEL (mouse [11]; [32]): > 16 mg/kg/day
- NOAEL (mouse [11]; [32]): ≥ 16 mg/kg/day
- LEL (mouse [11]; [33]): 1 mg/kg/day
- NEL (mouse [11]; [33]): < 1 mg/kg/day
- LEL (mouse [12]): 3 mg/kg/day
- LOAEL (mouse [12]): 3 mg/kg/day
- NEL (mouse [12]): 1.2 mg/kg/day
- NOAEL (mouse [12]): 1.2 mg/kg/day
- LEL (rat [13]; [34]): 1 mg/kg/day
- NEL (rat [13]; [34]): < 1 mg/kg/day
- LOAEL (rat [13]; [25]): 2 mg/kg/day
- NOAEL (rat [13]; systemic / in life observation / mortality / mortality + systemic / clinical chemistry / alanine aminotransferase (alt/sgpt) / alanine …): 1 mg/kg/day
- LOAEL (rat [14]; [35]): 0.4 mg/kg/day
- NOAEL (rat [14]; [35]): < 0.4 mg/kg/day
- LEL (rat [14]; [36]): 0.4 mg/kg/day
- NEL (rat [14]; [36]): < 0.4 mg/kg/day
- LOAEL (dog [15]; [37]): 2 mg/kg/day
- NOAEL (dog [15]; [37]): 0.5 mg/kg/day
- LEL (dog [15]; [38]): 0.5 mg/kg/day
- NEL (dog [15]; [38]): < 0.5 mg/kg/day
